In the NIST ThermoML archive (doi:10.1016/j.jct.2010.08.016):

Assay: xn = mol fraction of the nth substance listed
Details: 101 kPa, Liquid; for mass density: Vibrating tube method; for electrical conductivity: Alternating current cell with electrodes

NC(CO)(CO)CO [2-amino-2-(hydroxymethyl)-1,3-propanediol] + O
Details	electrical conductivity [S/m]	mass density [kg/m3]
303.15 K, x1 = 0.01	–	1019.5
303.15 K, x1 = 0.02	–	1033.6
303.15 K, x1 = 0.03	–	1046.2
303.15 K, x1 = 0.04	–	1053.3
303.15 K, x1 = 0.05	–	1070.3
303.15 K, x1 = 0.06	–	1076.2
303.15 K, x1 = 0.07	–	1086.3
313.15 K, x1 = 0.01	0.0241	1016
313.15 K, x1 = 0.02	0.0287	1029.9
313.15 K, x1 = 0.03	0.031	1042.4
313.15 K, x1 = 0.04	0.0318	1049.3
313.15 K, x1 = 0.05	0.0341	1066.1
313.15 K, x1 = 0.06	0.0341	1071.8
313.15 K, x1 = 0.07	0.03	1081.8
323.15 K, x1 = 0.01	0.0287	1011.6
323.15 K, x1 = 0.02	0.0346	1025.5
323.15 K, x1 = 0.03	0.0373	1037.8
323.15 K, x1 = 0.04	0.0385	1044.7
323.15 K, x1 = 0.05	0.0411	1061.3
323.15 K, x1 = 0.06	0.0411	1067
323.15 K, x1 = 0.07	0.0367	1076.9
333.15 K, x1 = 0.01	0.0333	1006
333.15 K, x1 = 0.02	0.0403	1020
333.15 K, x1 = 0.03	0.0435	1032.7
333.15 K, x1 = 0.04	0.0452	1039.6
333.15 K, x1 = 0.05	0.0482	1056
333.15 K, x1 = 0.06	0.0482	1061.7
333.15 K, x1 = 0.07	0.0435	1071.4
343.15 K, x1 = 0.01	0.0378	998.9
343.15 K, x1 = 0.02	0.046	1013.2
343.15 K, x1 = 0.03	0.0497	1027
343.15 K, x1 = 0.04	0.0518	1033.9
343.15 K, x1 = 0.05	0.0552	1050.2
343.15 K, x1 = 0.06	0.0552	1055.9
343.15 K, x1 = 0.07	0.0503	1065.6
353.15 K, x1 = 0.01	0.0423	989.9
353.15 K, x1 = 0.02	0.0514	1004.9
353.15 K, x1 = 0.03	0.0555	1020.8
353.15 K, x1 = 0.04	0.0579	1027.6
353.15 K, x1 = 0.05	0.0619	1044
353.15 K, x1 = 0.06	0.0619	1049.5
353.15 K, x1 = 0.07	0.0567	1059.2
